Common to all, as to format: cell-based
Experiment [1] deals with ERK signalling (phosphorylated ERK1 and 2/total ERK). In words: ERK signalling in SKMEL28 cell line (Western blot). The conditions noted are these: SKMEL28, relative to the negative control (YFCA+). As to the method:
Following 24 h treatment with the appropriate drugs either in presence of 10% bacterial supernatant or absence (YCFA+), protein extracts were obtained by lysing cells in RIPA buffer (R0278; Sigma Aldrich) supplemented with protease inhibitors (cOmplete Protease Inhibitor Cocktail Tablets; Roche, Switzerland) and 1 mM/L sodium orthovanadate, 0.5 mM/L PMSF. Protein quantification was done by the BCA protein assay. Equal amounts of total protein (20 μg/lane) were then separated by SDS-PAGE on 4-15% gradient gel (BioRad) and transferred to polyvinylidene difluoride (PVDF) membranes (Thermo Fisher Scientific, Loughborough). […]
Proteins of interest were detected with the appropriate HRP-conjugated secondary antibody (1:10,000, Thermo Fisher Scientific, Loughborough), developed with the ECL Western blotting Super Signal PicoPlus substrate (34577; Thermo Fisher Scientific, Loughborough), and visualised in Chemidoc XRS Imager (BioRad).
The effects of the following treatments were assessed on the SKMEL28 melanoma cell line (V600E oncogenic mutation in BRAF): (1) MRx0029; (2) Vemurafenib (VEMU) in YCFA+ medium; (3) VEMU and MRx0029; (4) Azacytidine-C (Aza-c) in YCFA+ medium; (5) Aza-c and MRX0029; (6) VEMU, Aza-c and MRx0029.

Experiment [2] deals with IL-8. In words: IL-8 secretion by differentiated HT29-mtx cells. The conditions noted are these: 24 h, vs untreated and YCFA+-treated cells. An excerpt: The ability of MRx0029 to cause any intestinal barrier dysfunction was investigated. HT29-mtx epithelial, mucin-producing cell monolayers were used as an in vitro model to evaluate gut barrier disruption and immune stimulation following treatment with MRx0029.

The subject of another experiment is MAP2. In words: MAP2 expression in SH-SY5Y cells (qPCR, Example 22). To be noted: 10% bacterial supernatants 17 h, vs negative control and media control. As to the method:
SH-SY5Y were plated in 6 well plates at a density of 0.5×10^6 cells. After 24 h, cells were treated in differentiation medium (growth medium containing 1% FBS) with 10% bacterial supernatants or YCFA+ for 17 h. Cells were collected, and total RNA was isolated according to the RNeasy mini kit protocol (Qiagen). cDNA was made using the High Capacity cDNA reverse transcription kit (Applied Biosystems). Gene expression was measured by qPCR. GAPDH was used as internal control. Fold change was calculated according to the 2^(−ΔΔct) method. Primer sets used are listed as SEQ ID NOs: 2, 3, 4 and 5.

The subject of experiment [3] is IL-8. In words: IL-8 secretion by the HT29 cell line co-incubated with bacteria (ELISA). The conditions noted are these: differentiated HT29 cells, bacteria 10^7 CFU 2 hr, with THP1 conditioned media or alone. As to the method:
HT29 cells were plated in 12 well plates at a density of 200,000 cells/well. Cells were being differentiated for 10 days (media change every 2 days). The day of the experiment cells were placed in the anaerobic hood and washed with anaerobic equilibrated HANKs solution. Then 900 ul of growth media (without FBS and antibiotics) was added to the cells. Bacteria cells were resuspended in of growth media (without FBS and antibiotics) and were then added at 10^7 CFU in total in 100 ul. Cells were co-incubated with bacteria for 2 hr in an anaerobic hood. Afterwards cells were washed in growth media without FBS but containing antibiotics. Cells were left to rest in 1 ml of THP1 condition media for 24 h. After 24 h incubation the supernatant was collected and spun down at 10,000 g for 3 min and 4° C. Samples were frozen at −80° C. until further use.
THP1 condition media: THp1 were seeded on T25 flask at density of 4×10^6/flask. Cells were treated in RPMI media (contain 2 mM L-glutamine without FBS) with 1 ug/ml LPS or LPS+5 mM ATP (ATP added 3 hours after LPS). Cells were left to rest for 24 hr. Thereafter Condition Media (CM) was collected by spinning down the cells at 250 g for 5 min and RT. Different CMs were used to treat HT29 Cells. A small aliquot was frozen at […] for ELISA. […]

Another experiment has as its system DRD2. Briefly: DRD2 expression in SH-SY5Y cells. The conditions noted are these: vs untreated cells. As to the method: SH-SY5Y were plated in 10 cm petri dishes a density of 2×10^6 cells. After 24 h cells were treated in differentiation medium (growth medium containing 1% FBS without RA) with 10% bacteria supernatants or YCFA+, 10 uM RA, 200 uM hexanoic acid or 200 uM valproic acid, for 17 hrs. There after representative images were taken using phase contrast EVOS XL core microscope at 40×10.65 magnification. Cells were collected, and total RNA was isolated according to RNeasy mini kit protocol (Qiagen). cDNAs were made using the high capacity cDNA reverse transcription kit (Applied Biosystems). Gene expression was measured using qPCR. GAPDH was used as internal control. Fold change was calculated according to the 2^(−ΔΔct) method.
The inventors measured the change in DRD2 expression in neuroblastoma cells using the same method as described in Example 1.

Regarding Megasphaera massiliensis MRx0029, the ERK signalling entry in experiment [1] is on record as “reduced ERK signalling”. In addition, the “secretion of IL-8” value in the experiment on IL-8 [2] is “even lower secretion of IL-8”. Besides, the MAP2 expression result with MAP2 is on record as “statistically-significant increase of MAP2 expression”. Also, the IL-8 secretion entry with IL-8 [3] is on record as “increased IL-8 secretion”. The “expression of DRD2” value in the experiment with DRD2 was “significantly decreased the expression of DRD2”.

(Values after patent US11419902B2, “Compositions comprising bacterial strains” (4D Pharma Research Limited, priority 2018, dated 2022).)
